The text below walks through data of patent US8796244B2, “Imidazopyridine derivatives as inhibitors of receptor tyrosine kinases” (Astex Therapeutics Ltd, priority 2008, dated 2014).

Experiment [1] relates to LP-1 cell line (FGF-1/Heparin induced pERK). As to the kind of experiment: Cell-based pERK ELISA, LP-1 cells. Conditions: Homo sapiens; for IC50: LP-1, read-out: LP-1 pERK ELISA (μM). (In general: In an ELISA, binding on a coated surface is turned into a signal by an enzyme label.)
Experiment [2] deals with parental wild-type Ba/F3 cells. The experiment can be described thus: Ba/F3 (WT) cell proliferation assay (Alamar Blue). Type of experiment: cell-based. Conditions: Mus musculus; for inhibition at 10 µM: BaF3, read-out: BaF3 WT prolif, % inhibition.
[3] abbreviates: BaF3, 72 h, read-out: BaF3 WT prolif (μM).
The mark [4] stands for this setting: BaF3, 72 hours, Alamar Blue, read-out: BaF3 WT prolif.
Where [5] appears, read: LP-1, read-out: LP-1 pERK ELISA, % inhibition.

Structures can show the parent of a compound that is named as a salt. Where two headings read alike, the source gives them in different places.

Consider `Cc1ccnc(-c2ccn3c(-c4cccc(NC(=O)NCC(F)(F)F)c4)cnc3c2)c1` [Example 97, 1-{3-[7-(4-Methyl-pyridin-2-yl)-imidazo[1,2-a]pyridin-3-yl]-phenyl}-3-(2,2,2-trifluoro-ethyl)-urea bis-hydrochloride], for which the IC50 in experiment [1] stood at 0.0081 µM; in experiment [2] (setting [3]), 0.44 µM.

As for `COc1cnc(-c2ccn3c(-c4cccc(NC(=O)NCC(F)(F)F)c4)cnc3c2)cn1` [Example 89, 1-{3-[7-(5-Methoxy-pyrazin-2-yl)-imidazo[1,2-a]pyridin-3-yl]-phenyl}-3-(2,2,2-trifluoro-ethyl)-urea], the IC50 in experiment [1] came to 0.073 µM; in experiment [2] (setting [4]) it was 0.097 µM.

Usually inhibition stands for the share of the control response that was lost under treatment. `Nc1nc(-c2ccn3c(-c4cncc(NC(=O)NCC(F)(F)F)c4)cnc3c2)ncc1F` [Example 168]: the IC50 in experiment [1] is 0.43 µM. The inhibition at 10 µM in experiment [2] was found to be 0%. Consider `CN1CCN(c2ccc(-c3ccn4c(-c5cccc(NC(=O)NCC(F)(F)F)c5)cnc4c3)nn2)CC1` [Example 12, 1-(3-{7-[6-(4-Methylpiperazin-1-yl)pyridazin-3-yl]imidazo[1,2-a]pyridin-3-yl}phenyl)-3-(2,2,2-trifluoroethyl)urea], for which the IC50 came out at 0.041 µM in experiment [1] and 3.7 µM in experiment [2] (setting [4]). For `O=C(NCC(F)(F)F)Nc1cccc(-c2cnc3cc(-c4ccc(Cl)nn4)ccn23)c1` [Example 33, 1-{3-[7-(6-Chloropyridazin-3-yl)-imidazo[1,2-a]pyridin-3-yl]phenyl}-3-(2,2,2-trifluoroethyl)urea], the IC50 was found to be 0.057 µM in experiment [1] and 0.32 µM in experiment [2] (setting [4]). Consider `O=C(NCC(F)(F)F)Nc1cccc(-c2cnc3cc(-c4cnn(C5CNC5)c4)ccn23)c1` [Example 37, 1-{3-[7-(1-Azetidin-3-yl-1H-pyrazol-4-yl)-imidazo[1,2-a]pyridin-3-yl]phenyl}-3-(2,2,2-trifluoroethyl)urea], for which, in experiment [1], the IC50 amounted to 0.29 µM. Moreover, in experiment [2], the inhibition at 10 µM turned out to be 3.3%. Take `Nc1nc(-c2ccn3c(-c4cccc(NC(=O)NCC(F)(F)F)c4)cnc3c2)ncc1C(F)(F)F` [Example 178]: the IC50 in experiment [1] was determined as 0.018 µM; in experiment [2] (setting [4]), 4.52 µM. The like results for `CN(C)CCCOc1ccc(-c2ccn3c(-c4cccc(NC(=O)NCC(F)(F)F)c4)cnc3c2)cn1` [Example 144, 1-(3-{7-[6-(3-Dimethylamino-propoxy)-pyridin-3-yl]-imidazo[1,2-a]pyridin-3-yl}-phenyl)-3-(2,2,2-trifluoro-ethyl)-urea] were, in that order, 0.13 µM and 3.6 µM. Turning to `Cn1cncc1C#Cc1ccn2c(-c3cc(NC(=O)NCC(F)(F)F)ccc3F)cnc2c1` [Compound 327], the IC50 in experiment [1] came out at 0.31 µM. For the same compound, in experiment [2], the inhibition at 10 µM turned out to be 30%. `CC(O)C#Cc1ccn2c(-c3cccc(NC(=O)NCC(F)(F)F)c3)cnc2c1` (stereo not drawn) [Example 18, 1-{3-[7-(3-Hydroxybut-1-ynyl)imidazo[1,2-a]pyridin-3-yl]phenyl}-3-(2,2,2-trifluoroethyl)urea formate]: the IC50 in experiment [1] was 0.095 µM; in experiment [2] (setting [3]), 1.4 µM. For `CN1CCC(O)(C#Cc2ccn3c(-c4cccc(NC(=O)NCC(F)(F)F)c4)cnc3c2)CC1` [Example 65, 1-{3-[7-(4-Hydroxy-1-methyl-piperidin-4-ylethynyl)-imidazo[1,2-a]pyridin-3-yl]-phenyl}-3-(2,2,2-trifluoro-ethyl)-urea formate], the IC50 in experiment [1] was 1.3 µM. The inhibition at 10 µM in experiment [2] came to 8.3%. As for `CN1CCC(Nc2ccc(-c3ccn4c(-c5cccc(NC(=O)NCC(F)(F)F)c5)cnc4c3)nn2)CC1` [Example 76, 1-(3-{7-[6-(1-Methyl-piperidin-4-ylamino)-pyridazin-3-yl]-imidazo[1,2-a]pyridin-3-yl}-phenyl)-3-(2,2,2-trifluoro-ethyl)-urea tri-hydrochloride], the IC50 in experiment [1] came to 0.51 µM. Moreover, in experiment [2], the inhibition at 10 µM was 26%. With `O=C(NCC(F)(F)F)Nc1cccc(-c2cnc3cc(C#Cc4ccsc4)ccn23)c1` [Example 16, 1-[3-(7-Thiophen-3-ylethynylimidazo[1,2-a]pyridinyl)phenyl]-3-(2,2,2-trifluoroethyl)urea], the IC50 in experiment [1] was found to be 0.11 µM; in experiment [2] (setting [4]) it was 0.83 µM. Take `O=C(NCC(F)(F)F)Nc1cccc(-c2cnc3cc(/C=C/c4ccccn4)ccn23)c1` [Example 186]: the IC50 in experiment [1] was found to be 0.019 µM; in experiment [2] (setting [4]) it was 0.32 µM. For the compound `Cc1cc(=O)n2nc(-c3ccn4c(-c5cccc(NC(=O)NCC(F)(F)F)c5)cnc4c3)sc2n1` [Example 27, 1-{3-[7-(7-Methyl-5-oxo-5H-[1,3,4]thiadiazolo[3,2-a]pyrimidin-2-yl)imidazo[1,2-a]pyridin-3-yl]phenyl}-3-(2,2,2-trifluoroethyl)urea], the IC50 in experiment [1] came out at 0.52 µM. Take `NC1CCN(c2ccc(-c3ccn4c(-c5cccc(NC(=O)NCC(F)(F)F)c5)cnc4c3)nn2)CC1` [Example 75, 1-(3-{7-[6-(4-Amino-piperidin-1-yl)-pyridazin-3-yl]-imidazo[1,2-a]pyridin-3-yl}-phenyl)-3-(2,2,2-trifluoro-ethyl)-urea tris-trifluoroacetate]: the IC50 in experiment [1] worked out at 0.63 µM. Besides, the inhibition at 10 µM in experiment [2] was 32%. The like results for `O=C(Nc1cccc(-c2cnc3cc(-c4ccc(F)cc4)ccn23)c1)NC1CC1` [Example 28, 1-Cyclopropyl-3-{3-[7-(4-fluorophenyl)imidazo[1,2-a]pyridin-3-yl]phenyl}urea] were, in that order, 0.17 µM and 35%. In the same order, the values of `Nc1nc(-c2ccn3c(-c4cccc(NC(=O)NC5CC5)c4)cnc3c2)ncc1F` [Example 166] are 0.29 µM and 0%. For the compound `O=C(NCC(F)(F)F)Nc1cccc(-c2cnc3cc(-c4cnn(C5CCOC5)c4)ccn23)c1` (stereo not drawn) [Example 47, 1-(3-{7-[1-(Tetrahydro-furan-3-yl)-1H-pyrazol-4-yl]-imidazo[1,2-a]pyridin-3-yl}-phenyl)-3-(2,2,2-trifluoro-ethyl)-urea hydrochloride], the figures for the IC50 in experiment [1] and in experiment [2] (setting [3]) were 0.0098 µM and 0.68 µM, respectively. Take `O=C(NCC(F)(F)F)Nc1cccc(-c2cnc3cc(-c4ccc(N5CCC5)nn4)ccn23)c1` [Example 82, 1-{3-[7-(6-Azetidin-1-yl-pyridazin-3-yl)-imidazo[1,2-a]pyridin-3-yl]-phenyl}-3-(2,2,2-trifluoro-ethyl)-urea hydrochloride]: the IC50 in experiment [1] was 0.0067 µM.

As for `Nc1ccn2c(-c3cccc(NC(=O)NCC(F)(F)F)c3)cnc2c1` [Example 115, 1-[3-(7-Aminoimidazol[1,2-a]pyridin-3-yl)phenyl]-3-(2,2,2-trifluoroethyl)urea], the inhibition at 10 µM in experiment [1] (setting [5]) was determined as 0%. On to `O=C(NCC(F)(F)F)Nc1cncc(-c2cnc3cc(-c4cccnn4)ccn23)c1` [Example 20, 1-[5-(7-Pyridazin-3-ylimidazo[1,2-a]pyridin-3-yl)pyridin-3-yl]-3-(2,2,2-trifluoroethyl)urea], for which, in experiment [1], the IC50 is 1.1 µM. Regarding `Cn1cc(-c2ccn3c(-c4cccc(NC(=O)NCC(F)(F)F)c4)cnc3c2)c(CN)n1` [Example 57, 1-{3-[7-(3-Aminomethyl-1-methyl-1H-pyrazol-4-yl)-imidazo[1,2-a]pyridin-3-yl]-phenyl}-3-(2,2,2-trifluoro-ethyl)-urea], in experiment [1] (setting [5]), the inhibition at 3 µM was determined as 40%. For `O=C(NCC(F)(F)F)Nc1cccc(-c2cnc3cc(C#Cc4cccnc4)ccn23)c1` [Example 11, 1-[3-(7-Pyridin-3-ylethynylimidazo[1,2-a]pyridin-3-yl)phenyl]-3-(2,2,2-trifluoroethyl)urea], the IC50 in experiment [1] was found to be 0.032 µM.
